From US9370189B2, “Controlling Pseudomonas aeruginosa persister cells with GM-CSF” (priority 2012, dated 2016)

Legend:
E. coli K12 = assay: Effect of GM-CSF on planktonic E. coli K12 cells (total viable cells and persisters) at exponential phase, alone and with antibiotic; type: cell-based, Escherichia coli; conditions: for % change in avg. CFU/mL by GM-CSF (compared to GM-CSF free control) 20 μg/mL Tet / % change in avg. CFU/mL by GM-CSF (compared to GM-CSF free control) With 2 μg/mL Cip / % change in avg. CFU/mL by GM-CSF (compared to GM-CSF free control) With 70 μg/mL Tob / % change in avg. CFU/mL by GM-CSF (compared to GM-CSF free control) With 200 μg/mL Gen: E. coli K12 exponential phase, 0.17 pM GM-CSF; for % change in avg. CFU/ml after adding factor + CIP / % change in avg. CFU/ml after adding factor + TET / % change in avg. CFU/ml after adding factor + TOB / % change in avg. CFU/ml after adding factor + GEN: planktonic E. coli K12; for % change in avg. CFU/ml after adding factor + CIP: 2.43 pg/mL GM-CSF with 2 μg/mL ciprofloxacin; for % change in avg. CFU/ml after adding factor + TET: 2.43 pg/mL GM-CSF with 20 μg/mL tetracycline; for % change in avg. CFU/ml after adding factor + TOB: 2.43 pg/mL GM-CSF with 70 μg/mL tobramycin; for % change in avg. CFU/ml after adding factor + GEN: 2.43 pg/mL GM-CSF with 200 μg/mL gentamicin
Method: This Example describes the treatment of planktonic P. aeruginosa PAO1, PDO300 and Escherichia coli K12, with GM-CSF introduced directly or together with an antibiotic to test the synergy. All experiments were conducted with cells harvested from exponential phase subcultures with an optical density at 600 nm (OD600) of 0.3 to 0.4.
In brief, after preparing an overnight culture of the tested strain in 25 ml LB medium, a subculture was prepared with an OD600 of 0.01 in 50 mL LB medium. The subculture was incubated at 37° C. with shaking at 200 rpm for 3-4 h, till an OD600 of 0.3 to 0.4 was reached. The exponential phase subculture was then divided equally into two centrifuge tubes, each containing 25 mL of the subculture. The subcultures were washed twice with 0.85% NaCl buffer by vortexing and then centrifuging at 4° C., 8000 rpm for 10 min each time. The washed subcultures/cells were resuspended in 25 mL 0.85% NaCl buffer and vortexed gently for 1 min. One of the tubes of subculture was selected for isolation of persisters by adding 200 μg/mL ciprofloxacin (for PAO1 and PDO300 strains) or 100 μg/mL ampicillin (for E. coli K12 strain). After adding the antibiotic for persister isolation, the subculture was incubated at 37° C., shaking at 200 rpm for 3.5 h.
To test the effects of GM-CSF on viability of persisters, the second tube was used to quantify the total number of viable cells and 1 mL of the washed persister cells was divided into 6 microcentrifuge tubes; 3 were control and the other 3 were GM-CSF treatment samples. In the treatment samples, GM-CSF was added to a concentration of 2.43 pg/mL (or 0.17 pM), the same as found in healthy human bodies. The control samples were supplemented with the same concentration of PBS and BSA as present in 2.43 pg/mL (or 0.17 pM) GM-CSF samples.
After incubating at 37° C. for 1 h with shaking at 200 rpm, the samples were plated on LB agar plates (15 g/L bacto agar) using drop plate method. The agar plates were then incubated for 24 h at 37° C. to count the total number of persister cells and understand the effect of 0.17 pM GM-CSF on the viability of persister cells.
To test the synergy with antibiotics, the above samples were then incubated at 37° C. for 3.5 h with shaking at 200 rpm after adding the selected antibiotic. After 3.5 h, the CFU of samples was quantified in the same way to understand if there is any synergy between GM-CSF and antibiotic. Similar treatments were performed on the total population in exponential phase as well. Apart from exponential phase, the synergistic effects of GM-CSF with antibiotics on total viable cells and persisters were also evaluated at stationary phase but PBS buffer (pH=7.4) was used in the experiments instead of 0.85% NaCl solution. Moreover, the 1 h and 3.5 h treatments were performed as co-treatments.

[1] = test system: planktonic cells of PDO300; assay: Synergistic effect of GM-CSF, tobramycin and alginate lyase on planktonic cells of PDO300; type: cell-based, Pseudomonas aeruginosa
Excerpt: This Example describes the use of alginate lyase as an enzyme to break down the extra alginate in order to understand the effect of the presence of alginate in PDO300 on the GM-CSF and antibiotic treatment.
To improve the effects of GM-CSF and antibiotics on the alginate overproducing PDO300, alginate lyase was used as an enzyme to break down the extra alginate. Alginate lyase is an enzyme which depolymerizes the alginate polymer by […] reaction. The alginate lyase used in the experiment was alginate lyase from Flavobacterium sp. (Sigma, catalog no. A1603-100MG). The experimental method was similar as mentioned above for the combined effect of GM-CSF and antibiotic. The alginate lyase was added as 0.05 mg/mL.
In brief, the experiment was performed in exponential phase with an optical density at 600 nm (OD600) of 0.3 to 0.4. After preparing an overnight culture of the tested strain in 25 ml LB medium, a subculture was prepared with an OD600 of 0.01 in 50 mL LB medium. The subculture was incubated at 37° C. with shaking at 200 rpm for 3-4 h, till OD600 of 0.3 to 0.4 was reached. The exponential phase subculture was then divided equally into two centrifuge tubes. The subcultures were washed twice with 0.85% NaCl buffer by vortexing and then centrifuging at 4° C., 8000 rpm for 10 min each time. The washed subcultures were resuspended in 25 mL 0.85% NaCl buffer and vortexed gently for 1 min. One of the subculture was selected for isolation of persisters by adding 200 μg/mL ciprofloxacin. After adding the antibiotic, the subculture was incubated at 37° C. with shaking at 200 rpm for 3.5 h. The other subculture was used to quantify the total number of viable cells.
For testing the direct impact of GM-CSF on the total viable cells, 1 mL of the subculture was added in 24 microcentrifuge tubes; 12 were control and the other 12 were GM-CSF treatment samples. In the treatment samples, GM-CSF was added to a concentration of 2.43 pg/mL. The control samples were supplemented with the same concentration of PBS and BSA as present in 2.43 pg/mL GM-CSF samples. […]

[2] = total viable cells, listed as factor

GM-CSF: granulocyte macrophage-colony stimulating factor, a cytokine secreted by macrophages; recombinant human GM-CSF (R&D systems) in binding tests
effect on E. coli persister cells (E. coli K12; compared to the pathogenic strain P. aeruginosa): ineffective | % change in avg. CFU/mL by GM-CSF (compared to GM-CSF free control) 20 μg/mL Tet (E. coli K12; persisters): −6.7% | % change in avg. CFU/mL by GM-CSF (compared to GM-CSF free control) With 2 μg/mL Cip (E. coli K12; persisters): −4.8% | % change in avg. CFU/mL by GM-CSF (compared to GM-CSF free control) With 70 μg/mL Tob (E. coli K12; persisters): +1.5% | % change in avg. CFU/mL by GM-CSF (compared to GM-CSF free control) With 200 μg/mL Gen (E. coli K12; persisters): +11.1% | % change in avg. CFU/ml after adding factor + CIP (E. coli K12; persisters): −6.18% | % change in avg. CFU/ml after adding factor + CIP (E. coli K12; persisters, listed as factor): −6.18% | % change in avg. CFU/ml after adding factor + TET (E. coli K12; persisters): +12.00% | % change in avg. CFU/ml after adding factor + TET (E. coli K12; persisters, listed as factor): +12.00% | % change in avg. CFU/ml after adding factor + TOB (E. coli K12; persisters): +11.16% | % change in avg. CFU/ml after adding factor + TOB (E. coli K12; persisters, listed as factor): +11.16% | % change in avg. CFU/ml after adding factor + GEN (E. coli K12; persisters): +18.52% | % change in avg. CFU/ml after adding factor + GEN (E. coli K12; persisters, listed as factor): +18.52% | % change in avg. CFU/mL by GM-CSF (compared to GM-CSF free control) 20 μg/mL Tet (E. coli K12; total viable cells): −19.0% | % change in avg. CFU/mL by GM-CSF (compared to GM-CSF free control) With 2 μg/mL Cip (E. coli K12; total viable cells): +5.9% | % change in avg. CFU/mL by GM-CSF (compared to GM-CSF free control) With 70 μg/mL Tob (E. coli K12; total viable cells): −32.0% | % change in avg. CFU/mL by GM-CSF (compared to GM-CSF free control) With 200 μg/mL Gen (E. coli K12; total viable cells): −31.3% | % change in avg. CFU/ml after adding factor + CIP (E. coli K12; total viable cells): +5.88% | % change in avg. CFU/ml after adding factor + CIP (E. coli K12; [2]): +5.88% | % change in avg. CFU/ml after adding factor + TET (E. coli K12; total viable cells): −19.05% | % change in avg. CFU/ml after adding factor + TET (E. coli K12; [2]): −19.05% | % change in avg. CFU/ml after adding factor + TOB (E. coli K12; total viable cells): −32.00% | % change in avg. CFU/ml after adding factor + TOB (E. coli K12; [2]): −32.00% | % change in avg. CFU/ml after adding factor + GEN (E. coli K12; total viable cells): −31.34% | % change in avg. CFU/ml after adding factor + GEN (E. coli K12; [2]): −31.34% | persisters changed by ([1]; planktonic PDO300, 2.43 pg/mL GM-CSF and 50 μg/mL tobramycin): −63.6±5.4% | persisters changed by ([1]; planktonic PDO300, 2.43 pg/mL GM-CSF, 50 μg/mL tobramycin and 0.05 mg/mL Alginate lyase): −74.1±3.3% | persisters changed by ([1]; planktonic cells (Example on PDO300; sentence prints PAO1), 2.43 pg/mL GM-CSF alone): −15.0±4.2%
